From US7884195B2, “Method of extracting ginsengnoside Rg2m, pharmaceutical composition including ginsengnoside Rg2, and uses thereof” (priority 2005, dated 2011)
Marks after values point to notes of the source that are not given here.

Legend:
[1] = tested on: Bcl-2; experiment: Expression of Bcl-2 in hippocampus, Aβ1-40 dementia model; type: in vivo, rat; conditions: nimodipine 0.05 mg·kg^−1 i.v., 7 days; 10 rats per group
Method: (§1) This experiment was carried out employing an Alzheimer Dementia (AD) model. 70 rats were divided into 7 groups consisting of 10 rats each and were anesthetized with chloral hydrate. Except for a placebo group, the remaining 6 groups were rendered dementia models by injecting 4 μg of beta-amyloid (Aβ1-40) and 1 μg of Ibotenic acid (IBA) into the hippocampus CA1 region of each rat. The placebo group was infused with an equal amount of physiological saline, instead of beta-amyloid and Ibotenic acid (IBA).
(§2) The above-mentioned dementia model groups were subdivided into a control group to which physiological saline was administered, four experimental groups to which ginsenoside Rg2 was administered and a comparative group to which a medical dementia therapeutic agent, nimodipine was administered. Each group received the corresponding respective reagents via intravenous injection for 7 days, once a day, according to the dosages set forth in Table 7 below. Herein, reagents, which are administered to experimental groups, are isomeric C-20(S) ginsenoside Rg2 and C-20(R) ginsenoside Rg2, and mixed-type C-20(SR) ginsenoside Rg2 (in the following Tables, referred to as S, R and SR, respectively).
(§3) In addition, 24 hours after examination of learning-memory ability, the front and rear of the injected site of the hippocampus CA1 region were successively sliced and subjected to Niss1 staining, HE staining, and chemical examination of immune tissues and in situ cell death, thereby observing morphological changes of hippocampus neuron cell zones, necrosis, degree of cell loss, rate of cell death, and degree of expression of Bax/Bcl-2 and C-fos genes.

[2] = tested on: Caspase-3; experiment: Caspase-3-positive neurons in CPU region, MID model; type: in vivo, rat; conditions: nimodipine 0.05 mg·kg^−1 i.v., once a day, 7 days
Method: (§4) This experiment was carried out employing a multiple infarct dementia (MID) model. 56 rats were divided into 7 groups consisting of 8 rats each and were anesthetized with 10% chloral hydrate. Except for a placebo group, the remaining 6 groups were established as dementia models by injecting 0.13 ml/100 g of a composite thrombosis-inducing agent into the carotid artery of each rat, restoring anatomical structures thereof and suturing skins along layers. The placebo group was injected with an equal amount of physiological saline, instead of the composite thrombosis-inducing agent.
as §2, with “The above” for “The above-mentioned”, “to” for “to the”, “Table 12” for “Table 7”, “following experiments,” for “following Tables,”, “respectively). […]” for “respectively).”

[3] = tested on: Calpain II; experiment: Calpain II-positive neurons in CPU region, MID model; type: in vivo, rat; conditions: nimodipine 0.05 mg·kg^−1 i.v., once a day, 7 days
Method: as §4
as §2, with “The above” for “The above-mentioned”, “to” for “to the”, “Table 12” for “Table 7”, “following experiments,” for “following Tables,”, “respectively). […]” for “respectively).”

[4] = tested on: PC12 cells; experiment: MTT metabolism after glutamic acid damage of PC12 cells; type: cell-based; conditions: nimodipine 5 pmol; 1 mmol/L glutamic acid, 20 hours; OD at 490 nm
Method: 100 μl/well of PC12 culture having a cell density of 10^5 cells/mL was inoculated into a 96-well plate and PC12 cells were allowed to adhere to walls of the plate. Wells were divided into 6 groups to which 6 wells were assigned each.
A serum-free medium was added to a non-treatment group, 1 mmol/L of a serum-free medium containing glutamic acid and an equal volume (1 mmol/L) of 20% 1,2-polyethylene glycol were added to a control group, 1 mmol/L of a serum-free medium containing glutamic acid and 0.1 mmol/L of respective structures of ginsenoside Rg2 were added to experimental groups, and 5 pmol of nimodipine, instead of ginsenoside Rg2, was added to a comparative group. Then, PC12 cells of respective groups were cultured at 37° C. for 20 hours.
20 μl/well of MTT (5 g/L) was added to respective groups and cells were continuously cultured at 37° C. for 4 hours. Then, the original medium was aspirated, and 0.1 ml/well of dimethyl sulfoxide (DMSO) was added to dissolve red granules. Next, optical density (OD) at 490 nm was measured using an enzyme-linked immuno-assay and then a t-test was made between groups.

[5] = tested on: glutamate (Glu); experiment: Glu-positive neurons in CPU region, MID model; type: in vivo, rat; conditions: nimodipine 0.05 mg·kg^−1 i.v., once a day, 7 days
Method: as §4
as §2, with “The above” for “The above-mentioned”, “to” for “to the”, “Table 12” for “Table 7”, “following experiments,” for “following Tables,”, “respectively). […]” for “respectively).”

[6] = tested on: Bax; experiment: Bax-positive neurons in CPU region, MID model; type: in vivo, rat; conditions: nimodipine 0.05 mg·kg^−1 i.v., once a day, 7 days
Method: as §4
as §2, with “The above” for “The above-mentioned”, “to” for “to the”, “Table 12” for “Table 7”, “following experiments,” for “following Tables,”, “respectively). […]” for “respectively).”

[7] = tested on: hippocampus CA1 nerve cell bodies; experiment: Niss1 staining, loss of nerve cell bodies, Aβ1-40 dementia model; type: in vivo, rat; conditions: nimodipine 0.05 mg·kg^−1 i.v., once a day, 7 days
Method: as §1
as §2, with “respectively). […]” for “respectively).”

[8] = tested on: C-fos; experiment: Expression of C-fos in hippocampus, Aβ1-40 dementia model; type: in vivo, rat; conditions: nimodipine 0.05 mg·kg^−1 i.v., 7 days; 10 rats per group
Method: as §1, §2, §3

[9] = tested on: multiple infarct dementia (MID) model rats; experiment: Y-shaped electronic maze test of learning-memory ability, multiple infarct dementia (MID) model; type: in vivo, rat; design: key: stimuli needed for 9-10 successive correct responses (memory: 24 h later); conditions: nimodipine 0.05 mg·kg^−1 i.v., once a day, 7 days
Method: On day 6 of respective reagent administration, animals were subjected to a Y-shaped electronic maze test. Learning-memory ability of rats was determined according to the following method. Firstly, the order of learning is taken as the number of stimulus times necessary for 9 to 10-time successive and exact response of rats. After 24 hours, the stimulus times necessary for 9 to 10-time successive and exact response of rats were recorded again as the order of memory. Based on the recordings thus obtained, a t-test was made between respective groups.
as §4, with “agent. […]” for “agent.”
On day 6 of respective reagent administration, learning-memory ability of animals was determined according to the same manner as in Experimental Example 1.

[10] = tested on: Alzheimer Dementia (AD) model rats injected with beta-amyloid (Aβ1-40) and Ibotenic acid (IBA); experiment: Y-shaped electronic maze test of learning-memory ability, beta-amyloid (Aβ1-40) dementia model; type: in vivo, rat; design: key: number of stimuli needed for 9-10 successive correct responses; conditions: nimodipine 0.05 mg·kg^−1 i.v., once a day, 7 days
Method: as §1
as §2, with “Herein, reagents, which are administered to experimental groups, are isomeric C-20(S) ginsenoside Rg2 and C-20(R) ginsenoside Rg2, and mixed-type C-20(SR) ginsenoside Rg2 (in the following Tables, referred to as S, R and SR, respectively).” left out
On day 6 of respective reagent administration, animals were subjected to a Y-shaped electronic maze test. Learning-memory ability of rats was determined according to the following method. […] After 24 hours, the stimulus times necessary for 9 to 10-time successive and exact response of rats were recorded again as the order of memory. […]

[11] = tested on: hippocampus nerve cells; experiment: TUNEL staining, in situ cell death (apoptosis), Aβ1-40 dementia model; type: in vivo, rat; conditions: nimodipine 0.05 mg·kg^−1 i.v., once a day, 7 days
Method: as §1
as §2, with “respectively). […]” for “respectively).”

[12] = tested on: Bax; experiment: Expression of Bax in hippocampus, Aβ1-40 dementia model; type: in vivo, rat; conditions: nimodipine 0.05 mg·kg^−1 i.v., 7 days; 10 rats per group
Method: as §1, §2, §3

COCCOC(=O)C1=C(C)NC(C)=C(C(=O)OC(C)C)C1c1cccc([N+](=O)[O-])c1 (centres unmarked) [Nimodipine, nimodipine, reference compound]
Expression Intensity of bcl-2, count at grade + [1]: 5 | Expression Intensity of bcl-2, count at grade ++ [1]: 4 | Expression Intensity of bcl-2, count at grade +++ [1]: 1** | Expression Intensity of bcl-2, count at grade − [1]: 0 | Number of Caspase-3 positive cells [2]: 2.3 ± 2.72 | Number of Calpain II-positive cells [3]: 3.9 ± 0.67 | MTT (OD) [4]: 0.086 ± 0.017 | Number of Glu-positive cells [5]: 11.8 ± 3.89 | Number of Bax-positive cells [6]: 3.2 ± 2.47 | Length of nerve cell body loss [7]: 259.14 ± 60.36 μm | Expression Intensity of C-fos, count at grade + [8]: 3 | Expression Intensity of C-fos, count at grade ++ [8]: 4 | Expression Intensity of C-fos, count at grade +++ [8]: 3* | Expression Intensity of C-fos, count at grade − [8]: 0 | Order of Memory [9]: 0.0 ± 0.0 | Order of Learning ([9]; test on day 6): 2.5 ± 3.70 | Order of Memory ([10]; 24 hours after learning): 4.10 ± 4.80 | Order of Learning ([10]; test on day 6): 8.60 ± 4.58 | Rate of nerve cell death [11]: 19.83 ± 2.93 | Expression Intensity of bax, count at grade + [12]: 7 | Expression Intensity of bax, count at grade ++ [12]: 3 | Expression Intensity of bax, count at grade +++ [12]: 0** | Expression Intensity of bax, count at grade − [12]: 0
